Measured values from patent US6610672B2, “Compositions including reduced malto-oligosaccharide preserving agents, and methods for preserving a material” (Grain Processing Corporation, priority 1999, dated 2003).
Each block holds one compound with its values, some of them ahead of it.

How the values were obtained:
[1] = Ultraviolet absorption (450 nm) over time of buffered lysine solutions with or without malto-oligosaccharide, warmed to 75° C.; type: physicochemical
Procedure: A pH 6 buffered lysine solution was prepared by dissolving L-lysine (0.5 g) in phosphate buffer and adjusting the pH with hydrochloric acid. […] An aqueous solution of a reduced malto-oligosaccharide was prepared by dissolving a reduced malto-oligosaccharide mixture in water to produce a solution having a final solids content of 50% by weight. The buffered lysine solution (2 mL) was dissolved in the aqueous reduced malto-oligosaccharide solution (hydrogenated MALTRIN® M180) (3 mL) to produce a solution.

[2] = test system: Fleischmann's baker's yeast; assay: Yeast viability before and after freeze drying (cell counting after plating on YM agar); type: cell-based; conditions: yeast viability of freeze dried sample divided by that of control sample
Procedure: Yeast viability was determined by cell counting after plating on yeast extract, malt extract (YM) agar in accordance with the method described in FDA Bacteriological Analytical Manual, 6th Ed., Ch. 4, pp. 401-402 (1984). Yeast viability is expressed as the number of cells per gram of dry solids (gm.ds). The percent yeast survival was determined by dividing the yeast viability of the freeze dried sample by the yeast viability of the control sample.
For comparison, a mixture of yeast cells and a malto-oligosaccharide was freeze dried, as follows. A 20% aqueous solution of MALTRIN® M180 (M180) was prepared by dissolving 85.5 g (6.4% moisture) of M180 in […] of deionized water. A suspension of yeast cells was prepared by dissolving 5.78 g of Fleischmann's baker's yeast in 94.3 g of sterile phosphate buffer. The yeast suspension was stirred for 30 minutes to obtain a relatively homogenous yeast mixture. A 10.0 ml aliquot of the yeast suspension was pipetted into the 20% aqueous M180 solution. A control sample was removed to determine yeast viability by plating on YM agar (sample 9A). […] After freeze drying, sample 9B was removed from the pans and analyzed for yeast viability. […]
A mixture of yeast cells and a reduced malto-oligosaccharide was freeze dried, as follows. […] After freeze drying, samples 9D-1 and 9D-2 were removed from the pans and analyzed for yeast viability. […]

[3] = test system: Enzeco® Fungal Lactase Concentrate; assay: Lactase enzyme activity before and after freeze drying (glucose released from a buffered lactose solution); type: biochemical
Procedure: The enzyme activity was determined in accordance with Mazzobre et al., Biopolymer Science: Food and Non Food Applications, Montpellier (France) Sep. 28-30, 1998 Ed. INRA, Paris, 1999 (Les Colloques, no 91). The procedure is based on measuring the amount of glucose released from a buffered lactose solution. The measurement was done using a YSI 2700 glucose analyzer.
For comparison, a mixture containing lactase and a malto-oligosaccharide was prepared, as follows. A 20% aqueous solution of MALTRIN® M180 (M180) was prepared by dissolving 85.5 g (6.4% moisture) of M180 in 313.5 g of deionized water. Enzeco® Fungal Lactase Concentrate, 1.0 g was added to the slurry and stirred for one hour. A 20.0 ml aliquot of the mixture was removed as a control (sample 8A). The remaining sample was poured into two separate freeze drying pans and each was freeze dried according to the temperature profile in Table 3. The temperature profile shown in column 8B of Table 3 represents the temperature profile for only one of the two samples in the freeze drying pans. The freeze dryer was a Virtis Genesis 25XL unit. Final vacuum of the system was 11.8 mtorr. After freeze drying, the material was removed from the pans and evaluated for enzyme activity. The enzyme activity in column 8B of Table 4 represents an average of the enzyme activities for each of the two samples in the freeze drying pans.
A mixture containing lactase and a reduced malto-oligosaccharide was freeze dried as follows. A 20% aqueous solution of reduced malto-oligosaccharide with a carbohydrate profile that matches MALTRIN® M180 (H-M180) was prepared by dissolving 83.4 g (4.1% moisture) of the reduced malto-oligosaccharide in 315.6 g of deionized water. Enzeco® Fungal Lactase Concentrate (1.0 g) was added to the slurry and stirred for one hour. A 20.0 ml aliquot of the mixture was removed as a control (sample 8C). The remaining sample was poured into two separate freeze drying pans and freeze dried according to the temperature profile in Table 3 (samples 8D-1 and 8D-2). The freeze dryer was a Virtis Genesis 25XL unit. Final vacuum of the system was 11.8 mtorr. After freeze drying, the material was removed from the pans and evaluated for enzyme activity as described in the previous example.
For comparison, a mixture containing lactase and trehalose was freeze dried, as follows. A 20% aqueous solution of trehalose was prepared by dissolving 88.9 g (9.1% moisture) of trehalose in 311.0 g of deionized water. Enzeco® Fungal Lactase Concentrate, 1.0 g was added to the slurry and stirred for-one hour. A 20.0 ml aliquot of the mixture was removed as a control (sample 8E). The remaining sample was poured into two separate freeze drying pans and each was freeze dried according to the temperature profile in Table 3. The temperature profile shown in column 8F of Table 3 represents the temperature profile of only one of the two samples in the freeze drying pans. The freeze dryer was a Virtis Genesis 25XL unit. Final vacuum of the system was 11.8 mtorr. After freeze drying, the material was removed from the pans and evaluated for enzyme activity as described in the previous example. The enzyme activity in column 8F of Table 4 represents an average of the enzyme activities for each of the two samples in the freeze drying pans.
The enzymatic activities shown in Table 4 are expressed as the percentage of glucose liberated in the enzyme assay as measured by the amount of glucose liberated divided by the maximum amount of glucose that can be theoretically liberated.

Compound: NCCCC[C@H](N)C(=O)O [Control (lysine only), L-lysine]
UV absorption (450 nm) ([1]; time 0 min): 0.044
UV absorption (450 nm) ([1]; time 20 min): 0.043
UV absorption (450 nm) ([1]; time 35 min): 0.044
UV absorption (450 nm) ([1]; time 50 min): 0.046
UV absorption (450 nm) ([1]; time 65 min): 0.047
UV absorption (450 nm) ([1]; time 80 min): 0.048
UV absorption (450 nm) ([1]; time 100 min): 0.050
UV absorption (450 nm) ([1]; time 110 min): 0.050
UV absorption (450 nm) ([1]; time 125 min): 0.051
UV absorption (450 nm) ([1]; time 170 min): 0.055
UV absorption (450 nm) ([1]; time 185 min): 0.057
UV absorption (450 nm) ([1]; time 200 min): 0.057
UV absorption (450 nm) ([1]; time 215 min): 0.059
UV absorption (450 nm) ([1]; time 230 min): 0.059
UV absorption (450 nm) ([1]; time 245 min): 0.058
UV absorption (450 nm) ([1]; time 260 min): 0.061
UV absorption (450 nm) ([1]; time 305 min): 0.061
UV absorption (450 nm) ([1]; time 320 min): 0.063
UV absorption (450 nm) ([1]; time 335 min): 0.063
UV absorption (450 nm) ([1]; time 350 min): 0.063
UV absorption (450 nm) ([1]; time 365 min): 0.064
UV absorption (450 nm) ([1]; time 380 min): 0.065

% activity (freeze dried sample divided by control sample not freeze dried) ([3]; Avg. over assay times): 86.6%
% activity (freeze dried sample divided by control sample not freeze dried) ([3]; lactase assay time 0 h): 0%
% activity (freeze dried sample divided by control sample not freeze dried) ([3]; lactase assay time 0.05 h): 72.4%
% activity (freeze dried sample divided by control sample not freeze dried) ([3]; lactase assay time 0.5 h): 90.0%
% activity (freeze dried sample divided by control sample not freeze dried) ([3]; lactase assay time 1 h): 90.7%
% activity (freeze dried sample divided by control sample not freeze dried) ([3]; lactase assay time 2 h): 93.2%
Compound: OC[C@H]1O[C@H](O[C@H]2O[C@H](CO)[C@@H](O)[C@H](O)[C@H]2O)[C@H](O)[C@@H](O)[C@@H]1O [Trehalose, trehalose]
% Yeast Survival [2]: 58.0 (trehalase) %
